The test has as its target T1, CHK2 (Homo sapiens, UniProt O96017).
T1 construct: made in house
As to the kind of experiment: CHK2 kinase activity assay (DELFIA, phosphorylation of a CDC25C peptide). Format: biochemical. The settings on record: ATP 30 μM, CHK2 1 nM, read-out: IC50, inhibition of CHK2 kinase activity in vitro.

Where “and” joins values, the source holds several entries; their conditions need not be identical. Identical values can stand only once. Like-named read-outs stand apart in the source and are kept apart here.

Here are results for 36 compounds from patent US8324226B2, “Therapeutic oxy-phenyl-aryl compounds and their use” (Cancer Research Technology Limited, priority 2007, dated 2012).

T1 sequence (O96017 whole entry): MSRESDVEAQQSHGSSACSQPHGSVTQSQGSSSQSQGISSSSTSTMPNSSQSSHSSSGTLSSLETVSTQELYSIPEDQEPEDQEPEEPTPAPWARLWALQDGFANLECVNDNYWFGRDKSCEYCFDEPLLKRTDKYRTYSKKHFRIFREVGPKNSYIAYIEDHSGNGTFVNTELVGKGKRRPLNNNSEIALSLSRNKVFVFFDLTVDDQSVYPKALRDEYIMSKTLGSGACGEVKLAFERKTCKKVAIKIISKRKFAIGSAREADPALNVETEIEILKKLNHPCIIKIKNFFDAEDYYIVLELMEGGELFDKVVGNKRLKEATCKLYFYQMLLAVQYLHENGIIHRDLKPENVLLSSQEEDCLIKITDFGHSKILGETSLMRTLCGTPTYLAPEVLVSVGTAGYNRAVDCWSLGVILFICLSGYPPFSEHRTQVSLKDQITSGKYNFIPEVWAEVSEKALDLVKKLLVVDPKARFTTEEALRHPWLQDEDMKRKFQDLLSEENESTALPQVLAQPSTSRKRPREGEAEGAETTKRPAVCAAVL

Consider `COc1ccc2c(N[C@@H]3CN[C@@H](CO)C3)nc(-c3cc(F)ccc3O)nc2c1` [Compound A-087, 4-Fluoro-2-(4-((3S,5R)-5-(hydroxymethyl)pyrrolidin-3-ylamino)-7-methoxyquinazolin-2-yl)phenol], for which, for the setting “following further studies”, the IC50 (usually the concentration needed to halve the response being measured) is not above 0.3 µM. For the compound `O=C(Nc1ccccc1)[C@H]1C[C@H](Nc2nc(-c3ccccc3O)nc3ccccc23)CN1` [Compound A-039, (2R,4S)-4-(2-(2-Hydroxyphenyl)quinazolin-4-ylamino)-N-phenylpyrrolidine-2-carboxamide], the concentration for half-maximal inhibition (IC50) (first set of tested compounds) was less than 3 µM and the half-inhibitory concentration (IC50) (following further studies) lay in the range of 0.3 to 3 µM. For the compound `CC(C)(O)C#Cc1ccc2c(N[C@H]3CCNC3)nc(-c3cc(F)ccc3O)nc2c1` [Compound A-093, (S)-4-Fluoro-2-(7-(3-hydroxy-3-methylbut-1-ynyl)-4-(pyrrolidin-3-ylamino)quinazolin-2-yl)phenol], the half-inhibitory concentration (IC50) (following further studies) was not above 0.3 µM.

For `O=C([C@H]1C[C@H](Nc2nc(-c3ccccc3O)nc3ccccc23)CN1)N1CCNCC1` [Compound A-035, ((2R,4S)-4-(2-(2-Hydroxyphenyl)quinazolin-4-ylamino)pyrrolidin-2-yl)(piperazin-1-yl)methanone], the half-inhibitory concentration (IC50) by setting is: (first set of tested compounds) less than 3 µM; (following further studies) 0.3 to 3 µM. Turning to `O=C([C@H]1C[C@H](Nc2nc(-c3ccccc3O)nc3ccccc23)CN1)N1CCCC1` [Compound A-034, ((2R,4S)-4-(2-(2-Hydroxyphenyl)quinazolin-4-ylamino)pyrrolidin-2-yl)(pyrrolidin-1-yl)methanone], the IC50 (first set of tested compounds) is less than 3 µM and the half-inhibitory concentration (IC50) (following further studies) was not above 0.3 µM. Regarding `Oc1ccc(F)cc1-c1nc(N[C@@H]2CCCNC2)c2ccccc2n1` [Compound A-014, (R)-4-Fluoro-2-(4-(piperidin-3-ylamino)quinazolin-2-yl)phenol], the IC50 runs as follows: (first set of tested compounds) less than 3 µM; (following further studies) not above 0.3 µM. The like results for `Oc1ccccc1-c1nc(N[C@H]2CCNC2)c2ccc(-c3ccc(CN4CCOCC4)cc3)cc2n1` [Compound A-027, (S)-2-(7-(4-(Morpholinomethyl)phenyl)-4-(pyrrolidin-3-ylamino)quinazolin-2-yl)phenol] were, in that order, less than 3 µM and not above 0.3 µM. As for `Oc1ccc(-c2ccc(F)cc2)cc1-c1nc(N[C@H]2CCNC2)c2ccccc2n1` [Compound A-100, (S)-4′-Fluoro-3-(4-(pyrrolidin-3-ylamino)quinazolin-2-yl)biphenyl-4-ol], where the note is “following further studies”, the IC50 fell in the range of 3 to 30 µM. On to `Oc1ccc(Br)cc1-c1nc(N[C@H]2CCNC2)c2ccccc2n1` [Compound A-041, (S)-4-Bromo-2-(4-(pyrrolidin-3-ylamino)quinazolin-2-yl)phenol], for which the IC50 was less than 3 µM (first set of tested compounds) and not above 0.3 µM (following further studies). On to `Oc1ccc(Cl)cc1-c1nc(NC2CCCCNC2)c2ccccc2n1` (stereo not drawn) [Compound A-058, 2-(4-(Azepan-3-ylamino)quinazolin-2-yl)-4-chlorophenol], for which, under “following further studies”, the IC50 is not above 0.3 µM.

Turning to `CN(CCO)C(=O)[C@H]1C[C@H](Nc2nc(-c3ccccc3O)nc3ccccc23)CN1` [Compound A-047, (2R,4S)-N-(2-Hydroxyethyl)-4-(2-(2-hydroxyphenyl)quinazolin-4-ylamino)-N-methylpyrrolidine-2-carboxamide], the half-maximal inhibitory concentration (IC50) was less than 3 µM (first set of tested compounds) and 0.3 to 3 µM (following further studies).

Consider `Oc1ccccc1-c1nc(N[C@H]2CCNC2)c2cc(-c3cn[nH]c3)ccc2n1` [Compound A-029, (S)-2-(6-(1H-Pyrazol-4-yl)-4-(pyrrolidin-3-ylamino)quinazolin-2-yl)phenol], for which the IC50 (first set of tested compounds) is less than 3 µM and the 50% inhibitory concentration (IC50) (following further studies) fell in the range of 0.3 to 3 µM. Take `COc1ccccc1[C@@H]1CNC[C@H]1Nc1nc(-c2cc(F)ccc2O)nc2ccccc12` (relative stereo) [Compound A-092, 4-Fluoro-2-(4-trans(4-(2-methoxyphenyl)pyrrolidin-3-ylamino)quinazolin-2-yl)phenol]: the 50% inhibitory concentration (IC50) (following further studies) is 0.3 to 3 µM. Same read-out and setting: then `Oc1ccc(Cl)cc1-c1nc(NC2CCCNCC2)c2ccccc2n1` (stereo not drawn) [Compound A-057, 2-(4-(Azepan-4-ylamino)quinazolin-2-yl)-4-chlorophenol], with not above 0.3 µM. Regarding `CN(c1nc(-c2cc(Cl)ccc2O)nc2ccccc12)[C@H]1CCNC1` [Compound A-044, (S)-4-Chloro-2-(4-(methyl(pyrrolidin-3-yl)amino)quinazolin-2-yl)phenol], the IC50 (first set of tested compounds) was less than 3 µM and the IC50 (following further studies) was not above 0.3 µM.

For `CN1CCC[C@@H](Nc2nc(-c3ccccc3O)nc3ccccc23)C1` [Compound A-008, 2-[4-((R)-1-Methylpiperidin-3-ylamino)-quinazolin-2-yl]-phenol], the half-maximal inhibitory concentration (IC50) runs as follows: (first set of tested compounds) less than 3 µM; (following further studies) 0.3 to 3 µM.

On to `CN1CCCC(Nc2nc(-c3ccccc3O)nc3ccccc23)C1` (stereo not drawn) [Compound A-001, 2-[4-(1-Methyl-piperidin-3-yl-amino)-quinazolin-2-yl]-phenol], for which the IC50 by setting is: (first set of tested compounds) less than 3 µM; (following further studies) 0.3 to 3 µM and 1.6 µM. Consider `NC(=O)c1ccc(-c2ccc(O)c(-c3nc(N[C@H]4CCNC4)c4ccccc4n3)c2)cc1` [Compound A-101, (S)-4′-Hydroxy-3′-(4-(pyrrolidin-3-ylamino)quinazolin-2-yl)biphenyl-4-carboxamide], for which the IC50 (following further studies) is 3 to 30 µM. On to `NC1CCCC(Nc2nc(-c3ccccc3O)nc3ccccc23)C1` (stereo not drawn) [Compound B-004, 2-[4-(3-Aminocyclohexylamino)-quinazolin-2-yl]-phenol], for which the IC50 is less than 3 µM (first set of tested compounds) and 0.3 to 3 µM (following further studies). For the compound `Oc1ccccc1-c1nc(N[C@H]2CCNC2)c2ccc(-c3cn[nH]c3)cc2n1` [Compound A-065, (S)-2-(7-(1H-Pyrazol-4-yl)-4-(pyrrolidin-3-ylamino)quinazolin-2-yl)phenol], the IC50 (following further studies) is not above 0.3 µM. For `O=C(NCc1ccccc1)[C@H]1C[C@H](Nc2nc(-c3ccccc3O)nc3ccccc23)CN1` [Compound A-031, (2R,4S)-N-Benzyl-4-(2-(2-hydroxyphenyl)quinazolin-4-ylamino)pyrrolidine-2-carboxamide], the IC50 is less than 3 µM (first set of tested compounds) and 0.3 to 3 µM (following further studies). As for `O=C(O)[C@@H]1CNC[C@H]1Nc1nc(-c2cc(F)ccc2O)nc2ccccc12` (relative stereo) [Compound A-089, trans-4-(2-(5-Fluoro-2-hydroxyphenyl)quinazolin-4-ylamino)pyrrolidine-3-carboxylic acid], the half-inhibitory concentration (IC50) (following further studies) lay in the range of 0.3 to 3 µM.

As for `Oc1ccc(F)cc1-c1nc(N[C@H]2CCNC2)c2ccc(-c3cn[nH]c3)cc2n1` [Compound A-068, (S)-2-(7-(1H-Pyrazol-4-yl)-4-(pyrrolidin-3-ylamino)quinazolin-2-yl)-4-fluorophenol], where the note is “following further studies”, the half-inhibitory concentration (IC50) is not above 0.3 µM. Same read-out and setting: in the case of `CN(C)C(=O)[C@H]1C[C@H](Nc2nc(-c3cc(F)ccc3O)nc3cc(CCCO)ccc23)CN1` [Compound A-061, (2R,4S)-4-(2-(5-Fluoro-2-hydroxyphenyl)-7-(3-hydroxypropyl)quinazolin-4-ylamino)-N,N-dimethylpyrrolidine-2-carboxamide] it was not above 0.3 µM. Take `O=C([C@H]1C[C@H](Nc2nc(-c3ccccc3O)nc3ccccc23)CN1)N1CCOCC1` [Compound A-038, ((2R,4S)-4-(2-(2-Hydroxyphenyl)quinazolin-4-ylamino)pyrrolidin-2-yl)(morpholino)methanone]: the half-maximal inhibitory concentration (IC50) by setting is: (first set of tested compounds) less than 3 µM; (following further studies) not above 0.3 µM. For the compound `Nc1nnc(-c2ccc(O)c(-c3nc(N[C@H]4CCNC4)c4ccccc4n3)c2)s1` [Compound A-110, (S)-4-(5-Amino-1,3,4-thiadiazol-2-yl)-2-(4-(pyrrolidin-3-ylamino)quinazolin-2-yl)phenol], the half-inhibitory concentration (IC50) (following further studies) was not above 0.3 µM. Regarding `OCC#Cc1ccc2nc(-c3ccccc3O)nc(N[C@H]3CCNC3)c2c1` [Compound A-052, (S)-2-(6-(3-hydroxyprop-1-ynyl)-4-(pyrrolidin-3-ylamino)quinazolin-2-yl)phenol], the IC50 reads like this: (first set of tested compounds) less than 3 µM; (following further studies) not above 0.3 µM.

Consider `COC/C=C/c1ccc2c(N[C@H]3CCNC3)nc(-c3ccccc3O)nc2c1` [Compound A-078, (S,E)-2-(7-(3-Methoxyprop-1-enyl)-4-(pyrrolidin-3-ylamino)quinazolin-2-yl)phenol], for which, under “following further studies”, the IC50 was not above 0.3 µM. Consider `Oc1ccc(Cl)cc1-c1nc(N[C@@H]2CCCNC2)c2ccccc2n1` [Compound A-013, (R)-4-Chloro-2-(4-(piperidin-3-ylamino)quinazolin-2-yl)phenol], for which the IC50 is, setting by setting: (first set of tested compounds) less than 3 µM; (following further studies) not above 0.3 µM. `Oc1ccccc1-c1cc(N[C@H]2CCNC2)c2ccccc2n1` [Compound C-001, (S)-2-(4-(Pyrrolidin-3-ylamino)quinolin-2-yl)phenol]: the IC50 is, setting by setting: (first set of tested compounds) 3 to 30 µM; (following further studies) 3 to 30 µM and 4.4 µM. Take `Oc1ccc(-c2ccsc2)cc1-c1nc(N[C@H]2CCNC2)c2ccccc2n1` [Compound A-108, (S)-2-(4-(Pyrrolidin-3-ylamino)quinazolin-2-yl)-4-(thiophen-3-yl)phenol]: the IC50 (following further studies) fell in the range of 0.3 to 3 µM. With `N[C@@H]1CCCC[C@H]1Nc1nc(-c2ccccc2O)nc2ccccc12` (relative stereo) [Compound B-003, 2-[4-(trans-2-Aminocyclohexylamino)-quinazolin-2-yl]-phenol], the 50% inhibitory concentration (IC50) runs as follows: (first set of tested compounds) less than 3 µM; (following further studies) 0.3 to 3 µM. `N[C@@H]1CCCC[C@@H]1Nc1nc(-c2ccccc2O)nc2ccccc12` (relative stereo) [Compound B-002]: the IC50 runs as follows: (first set of tested compounds) 3 to 30 µM; (following further studies) 3 to 30 µM and 3.8 µM. Regarding `COCCCc1ccc2c(N[C@H]3CCNC3)nc(-c3ccccc3O)nc2c1` [Compound A-079, (S)-2-(7-(3-Methoxypropyl)-4-(pyrrolidin-3-ylamino)quinazolin-2-yl)phenol], the IC50 (following further studies) is not above 0.3 µM. Turning to `OCC#Cc1ccc2c(N[C@H]3CCNC3)nc(-c3ccccc3O)nc2c1` [Compound A-054, (S)-2-(7-(3-Hydroxyprop-1-ynyl)-4-(pyrrolidin-3-ylamino)quinazolin-2-yl)phenol], the IC50 is less than 3 µM (first set of tested compounds) and not above 0.3 µM (following further studies). The like results for `Oc1ccccc1-c1nc(N[C@H]2CCN(Cc3ccccc3)C2)c2ccccc2n1` [Compound A-011, 2-[4-((S)-1-Benzylpyrrolidin-3-ylamino)-quinazolin-2-yl]-phenol] were, in that order, 3 to 30 µM and 3 to 30 µM.
